The source made the active and inactive calls.
Experiments:
Type in all cases: functional
[1] = target: G-protein coupled receptor 55 (Homo sapiens, UniProt Q9Y2T6); assay: GPR55 agonists via beta-arrestin recruitment, primary screen, imaging, U2OS cells, beta-arrestin-GFP redistribution (AID 1961)
[2] = target: T1, Protein RecA (Mycobacterium tuberculosis, UniProt P9WHJ3); assay: Fluorescence Cell-Free Homogeneous Dose Retest to Identify Inhibitors of RecA-Intein Splicing Activity. [Related pubchem assays (depositor defined):AID2097, AID2223, AID489010, AID492950]
T1 sequence (P9WHJ3 whole entry): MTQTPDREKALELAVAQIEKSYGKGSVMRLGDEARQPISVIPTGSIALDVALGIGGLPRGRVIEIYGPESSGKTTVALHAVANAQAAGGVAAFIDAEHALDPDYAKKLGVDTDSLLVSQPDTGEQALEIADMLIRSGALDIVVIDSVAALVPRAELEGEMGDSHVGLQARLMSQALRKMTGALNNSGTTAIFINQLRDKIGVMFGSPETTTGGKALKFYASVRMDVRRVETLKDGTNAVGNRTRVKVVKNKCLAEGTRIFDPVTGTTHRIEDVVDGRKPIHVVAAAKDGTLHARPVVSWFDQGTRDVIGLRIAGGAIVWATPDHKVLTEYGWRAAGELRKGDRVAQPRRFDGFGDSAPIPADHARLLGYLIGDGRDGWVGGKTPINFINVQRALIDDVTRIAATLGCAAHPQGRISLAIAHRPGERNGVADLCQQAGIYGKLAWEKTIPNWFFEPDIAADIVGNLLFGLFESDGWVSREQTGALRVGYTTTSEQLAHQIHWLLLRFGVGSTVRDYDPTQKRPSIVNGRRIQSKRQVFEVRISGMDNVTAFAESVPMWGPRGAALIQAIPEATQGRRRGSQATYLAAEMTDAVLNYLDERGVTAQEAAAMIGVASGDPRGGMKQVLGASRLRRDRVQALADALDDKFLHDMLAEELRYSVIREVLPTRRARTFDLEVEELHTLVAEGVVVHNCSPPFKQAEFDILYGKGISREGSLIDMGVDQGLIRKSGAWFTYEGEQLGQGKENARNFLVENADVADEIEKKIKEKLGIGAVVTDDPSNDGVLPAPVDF

[3] = Intein inhibitors as potential Tuberculosis drugs, a cytotoxicity screen. [Related pubchem assays (depositor defined):AID2221, AID2223, AID434968, AID435010, AID449749, AID449750, AID489010]
[4] = nonselective inhibitors of cellular cAMP signaling, dose response, counter-screen for MC4R biased antagonist project, cell-based, TR-FRET cAMP detection (AID 602305);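 further: U2OS cells stimulated with forskolin near its EC80 as the cAMP inducer; potency is for inhibition of forskolin-stimulated cAMP signaling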
[5] = target: Melanocortin receptor 4 (Homo sapiens, UniProt P32245); assay: MC4R antagonist potency on cAMP, dose response, cell-based, TR-FRET, biased antagonists (AID 602298);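 further: antagonist potency against agonist-stimulated cAMP production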
[6] = target: T2, Replicative DNA helicase DnaB (Mycobacterium tuberculosis, UniProt P9WMR3); assay: DnaB intein splicing inhibitors, dose response, biochemical, cell-free fluorescence (AID 449749)
T2 sequence (P9WMR3 whole entry): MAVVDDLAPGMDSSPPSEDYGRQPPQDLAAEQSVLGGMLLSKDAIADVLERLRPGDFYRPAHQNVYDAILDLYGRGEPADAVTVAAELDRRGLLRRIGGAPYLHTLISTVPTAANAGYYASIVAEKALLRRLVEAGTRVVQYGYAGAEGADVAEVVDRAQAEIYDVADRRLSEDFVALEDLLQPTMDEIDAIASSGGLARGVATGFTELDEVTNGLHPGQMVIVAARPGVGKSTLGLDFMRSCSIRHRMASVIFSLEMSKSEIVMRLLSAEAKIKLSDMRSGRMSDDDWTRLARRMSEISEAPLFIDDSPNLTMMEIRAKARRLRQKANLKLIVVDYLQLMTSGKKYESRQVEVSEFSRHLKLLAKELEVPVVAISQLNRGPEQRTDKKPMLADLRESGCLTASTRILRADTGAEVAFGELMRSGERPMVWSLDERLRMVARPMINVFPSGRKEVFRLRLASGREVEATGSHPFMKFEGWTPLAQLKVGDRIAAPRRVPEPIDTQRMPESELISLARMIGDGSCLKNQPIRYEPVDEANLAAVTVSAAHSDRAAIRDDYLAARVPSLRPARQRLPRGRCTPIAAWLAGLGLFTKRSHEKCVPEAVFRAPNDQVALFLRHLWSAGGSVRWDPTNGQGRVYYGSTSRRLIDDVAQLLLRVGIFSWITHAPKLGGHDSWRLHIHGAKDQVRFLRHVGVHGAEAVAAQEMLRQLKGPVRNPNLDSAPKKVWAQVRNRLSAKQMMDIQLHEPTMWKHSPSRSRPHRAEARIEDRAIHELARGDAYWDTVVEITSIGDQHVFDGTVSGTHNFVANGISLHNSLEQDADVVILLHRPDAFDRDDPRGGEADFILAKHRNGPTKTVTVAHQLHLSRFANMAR

[7] = target: T3, Orexin receptor type 2 (Homo sapiens, UniProt O43614); assay: Counterscreen assay for antagonists of the orexin 1 receptor (OX1R; HCRTR1): Fluorescence-based cell-based dose response assay for antagonists of the orexin 2 receptor (OX2R; HCRTR2), run by assay provider.
[8] = target: T3, Orexin receptor type 2; assay: Counterscreen assay for antagonists of the orexin 1 receptor (OX1R; HCRTR1): Homogeneous Time Resolved Fluorescence (HTRF)-based cell-based dose response assay for antagonists of the orexin 2 receptor (OX2R; HCRTR2), run by assay provider.
[9] = target: T4, Orexin/Hypocretin receptor type 1 (Homo sapiens, UniProt O43613); assay: (§1) Fluorescence-based cell-based high throughput dose response assay for antagonists of the orexin 1 receptor (OX1R; HCRTR1). [Related pubchem assays (depositor defined):AID434989, AID435008, AID463079, AID485270, AID492963, AID492964, AID492965, AID493232, AID504717, AID504718]
T4 sequence (O43613 whole entry): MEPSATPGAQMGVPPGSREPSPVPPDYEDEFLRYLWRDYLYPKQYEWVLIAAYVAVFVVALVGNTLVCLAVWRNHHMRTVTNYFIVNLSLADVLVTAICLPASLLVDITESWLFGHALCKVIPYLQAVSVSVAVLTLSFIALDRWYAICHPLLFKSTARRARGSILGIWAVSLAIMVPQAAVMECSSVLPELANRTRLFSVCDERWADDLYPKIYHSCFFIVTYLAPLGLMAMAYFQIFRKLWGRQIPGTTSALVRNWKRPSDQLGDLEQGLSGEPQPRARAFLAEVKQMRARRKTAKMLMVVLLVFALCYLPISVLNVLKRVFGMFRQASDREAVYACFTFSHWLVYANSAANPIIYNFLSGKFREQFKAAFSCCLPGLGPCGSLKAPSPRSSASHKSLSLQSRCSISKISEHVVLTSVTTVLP

[10] = tested on: CHO-K1; assay: (§2) Counterscreen for antagonists of the orexin 1 receptor (OX1R; HCRTR1): Homogeneous time resolved fluorescence (HTRF)-based cell-based dose response assay to identify antagonists of the parental CHO-K1 cell line. [Related pubchem assays (depositor defined):AID434989, AID435008, AID463079, AID485270, AID492963, AID492964, AID492965, AID493232, AID504699, AID504701]; settings: Cricetulus griseus
[11] = as §2, with “Fluorescence-based” for “Homogeneous time resolved fluorescence (HTRF)-based”, “cell-based high throughput” for “cell-based”, “CHO” for “CHO-K1”
[12] = target: T4, Orexin/Hypocretin receptor type 1; assay: as §1, with “Homogeneous Time Resolved Fluorescence (HTRF)-based” for “Fluorescence-based”
[13] = target: Serine/threonine-protein kinase pim-1 (Homo sapiens, UniProt P11309)
[14] = target: Cell division cycle 7-related protein kinase (Homo sapiens, UniProt O00311);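 further: value obtained from a kinome-wide kinase panel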
[15] = target: cAMP-dependent protein kinase catalytic subunit alpha (Homo sapiens, UniProt P17612)
[16] = target: Mitogen-activated protein kinase kinase kinase kinase 4 (Homo sapiens, UniProt O95819)
[17] = target: Homeodomain-interacting protein kinase 2 (Homo sapiens, UniProt Q9H2X6);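 further: measured within a kinome-wide kinase profiling panel, HIPK2 being one panel member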
[18] = target: Interleukin-1 receptor-associated kinase 4 (Homo sapiens, UniProt Q9NWZ3)
[19] = target: Glycogen synthase kinase-3 beta (Homo sapiens, UniProt P49841);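 further: value comes from a broad kinome profiling panel, with GSK3B as the panel member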
[20] = target: Mitogen-activated protein kinase 9 (Homo sapiens, UniProt P45984);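 further: value from a kinome panel profiling assay, MAPK9 panel entry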
[21] = target: Vascular endothelial growth factor receptor 2 (Homo sapiens, UniProt P35968)
[22] = target: Aurora kinase B (Homo sapiens, UniProt Q96GD4)
[23] = target: Aurora kinase A (Homo sapiens, UniProt O14965);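 further: value from the Navigating the Kinome kinase panel profiling, panel entry STK6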
[24] = target: Sphingosine 1-phosphate receptor 4 (Homo sapiens, UniProt O95977); assay: Late-stage fluorescence-based dose-response cell-based counterscreen assay to identify agonists of the Sphingosine 1-Phosphate Receptor 3 (S1P3): Sphingosine 1-Phosphate Receptor 4 (S1P4) agonist assay.
[25] = target: Sphingosine 1-phosphate receptor 2 (Homo sapiens, UniProt O95136); assay: Late-stage fluorescence-based dose-response cell-based counterscreen assay to identify agonists of the Sphingosine 1-Phosphate Receptor 3 (S1P3): Sphingosine 1-Phosphate Receptor 2 (S1P2) agonist assay.
[26] = target: Mitogen-activated protein kinase 8 (Homo sapiens, UniProt P45983);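 further: value comes from one member of a kinome-wide kinase profiling panel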
[27] = target: Serine/threonine-protein kinase D3 (Homo sapiens, UniProt O94806);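 further: determined within a kinase panel screen, with PRKCN as the panel member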
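Wherever CC50 is given: cells exposed to compound for 72 hours before luminescence readout.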

T3 sequence (O43614 whole entry): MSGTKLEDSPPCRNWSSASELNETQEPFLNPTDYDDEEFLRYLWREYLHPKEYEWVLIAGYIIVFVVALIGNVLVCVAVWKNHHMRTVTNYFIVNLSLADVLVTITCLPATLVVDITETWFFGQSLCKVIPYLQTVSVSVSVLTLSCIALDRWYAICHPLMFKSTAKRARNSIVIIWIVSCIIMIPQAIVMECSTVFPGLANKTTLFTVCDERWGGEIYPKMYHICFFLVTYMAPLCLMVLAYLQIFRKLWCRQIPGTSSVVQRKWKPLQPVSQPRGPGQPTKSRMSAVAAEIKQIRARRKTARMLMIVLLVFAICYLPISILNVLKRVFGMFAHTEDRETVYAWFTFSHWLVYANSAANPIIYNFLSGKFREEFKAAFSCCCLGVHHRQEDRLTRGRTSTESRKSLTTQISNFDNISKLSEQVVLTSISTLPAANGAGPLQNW
Interleukin-1 receptor-associated kinase 4, sequence (Q9NWZ3 whole entry): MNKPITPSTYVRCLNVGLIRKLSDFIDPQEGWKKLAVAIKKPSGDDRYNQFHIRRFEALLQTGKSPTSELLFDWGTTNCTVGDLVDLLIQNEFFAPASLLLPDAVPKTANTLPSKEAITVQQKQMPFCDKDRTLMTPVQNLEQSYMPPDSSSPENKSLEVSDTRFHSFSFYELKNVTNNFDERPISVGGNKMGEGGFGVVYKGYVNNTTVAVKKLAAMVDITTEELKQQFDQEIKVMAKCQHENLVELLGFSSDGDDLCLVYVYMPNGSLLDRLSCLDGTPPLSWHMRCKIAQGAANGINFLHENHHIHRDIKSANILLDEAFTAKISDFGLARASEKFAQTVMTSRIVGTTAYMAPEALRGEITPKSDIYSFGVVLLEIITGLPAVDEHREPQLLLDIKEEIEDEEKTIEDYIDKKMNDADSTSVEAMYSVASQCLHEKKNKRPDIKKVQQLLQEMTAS
Vascular endothelial growth factor receptor 2, sequence (P35968 whole entry): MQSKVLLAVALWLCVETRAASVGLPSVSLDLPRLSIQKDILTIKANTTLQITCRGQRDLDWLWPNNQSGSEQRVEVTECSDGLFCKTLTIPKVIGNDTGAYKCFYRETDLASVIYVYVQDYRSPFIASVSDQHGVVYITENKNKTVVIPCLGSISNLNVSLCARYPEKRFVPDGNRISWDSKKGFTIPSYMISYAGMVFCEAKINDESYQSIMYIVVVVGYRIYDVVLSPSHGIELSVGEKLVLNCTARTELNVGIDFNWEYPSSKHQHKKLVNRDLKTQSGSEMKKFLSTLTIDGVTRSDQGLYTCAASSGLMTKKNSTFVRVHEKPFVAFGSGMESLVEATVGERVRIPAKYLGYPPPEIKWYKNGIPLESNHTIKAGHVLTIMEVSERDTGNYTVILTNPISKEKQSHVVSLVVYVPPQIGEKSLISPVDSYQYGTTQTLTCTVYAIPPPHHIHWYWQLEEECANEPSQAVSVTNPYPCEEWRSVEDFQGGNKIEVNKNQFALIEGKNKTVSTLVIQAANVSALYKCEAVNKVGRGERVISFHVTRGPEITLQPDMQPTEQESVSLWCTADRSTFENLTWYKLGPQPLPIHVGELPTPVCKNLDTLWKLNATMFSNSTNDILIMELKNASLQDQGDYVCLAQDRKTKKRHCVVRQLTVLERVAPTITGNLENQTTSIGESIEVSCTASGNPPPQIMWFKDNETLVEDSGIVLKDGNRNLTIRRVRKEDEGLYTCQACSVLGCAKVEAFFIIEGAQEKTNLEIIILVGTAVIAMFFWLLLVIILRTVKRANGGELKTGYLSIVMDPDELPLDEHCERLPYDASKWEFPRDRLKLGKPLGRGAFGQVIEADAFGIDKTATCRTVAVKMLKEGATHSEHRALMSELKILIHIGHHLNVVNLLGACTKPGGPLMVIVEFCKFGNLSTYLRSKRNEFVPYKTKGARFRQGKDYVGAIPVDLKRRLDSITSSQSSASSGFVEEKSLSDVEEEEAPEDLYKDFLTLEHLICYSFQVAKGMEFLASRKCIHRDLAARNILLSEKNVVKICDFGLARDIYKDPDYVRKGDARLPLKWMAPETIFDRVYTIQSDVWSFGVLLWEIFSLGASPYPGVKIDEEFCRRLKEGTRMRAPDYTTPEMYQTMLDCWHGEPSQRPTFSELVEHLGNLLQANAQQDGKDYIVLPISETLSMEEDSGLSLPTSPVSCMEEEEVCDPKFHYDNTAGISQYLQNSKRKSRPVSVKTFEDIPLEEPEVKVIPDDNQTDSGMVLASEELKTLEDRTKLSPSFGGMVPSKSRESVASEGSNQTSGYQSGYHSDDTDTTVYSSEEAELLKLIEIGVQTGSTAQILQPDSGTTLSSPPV
Mitogen-activated protein kinase 9, sequence (P45984 whole entry): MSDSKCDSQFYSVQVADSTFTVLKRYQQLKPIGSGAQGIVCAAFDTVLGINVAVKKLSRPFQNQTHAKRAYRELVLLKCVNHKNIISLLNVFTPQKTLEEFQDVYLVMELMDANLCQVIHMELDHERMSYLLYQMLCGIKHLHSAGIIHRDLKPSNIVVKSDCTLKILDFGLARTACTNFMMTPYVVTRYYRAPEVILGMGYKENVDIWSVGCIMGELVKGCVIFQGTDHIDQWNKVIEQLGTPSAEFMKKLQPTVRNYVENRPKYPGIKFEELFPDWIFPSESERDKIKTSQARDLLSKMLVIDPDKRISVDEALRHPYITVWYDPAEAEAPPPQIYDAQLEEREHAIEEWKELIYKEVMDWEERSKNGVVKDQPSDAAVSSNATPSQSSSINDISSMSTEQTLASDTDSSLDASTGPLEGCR
Mitogen-activated protein kinase kinase kinase kinase 4, sequence (O95819 whole entry): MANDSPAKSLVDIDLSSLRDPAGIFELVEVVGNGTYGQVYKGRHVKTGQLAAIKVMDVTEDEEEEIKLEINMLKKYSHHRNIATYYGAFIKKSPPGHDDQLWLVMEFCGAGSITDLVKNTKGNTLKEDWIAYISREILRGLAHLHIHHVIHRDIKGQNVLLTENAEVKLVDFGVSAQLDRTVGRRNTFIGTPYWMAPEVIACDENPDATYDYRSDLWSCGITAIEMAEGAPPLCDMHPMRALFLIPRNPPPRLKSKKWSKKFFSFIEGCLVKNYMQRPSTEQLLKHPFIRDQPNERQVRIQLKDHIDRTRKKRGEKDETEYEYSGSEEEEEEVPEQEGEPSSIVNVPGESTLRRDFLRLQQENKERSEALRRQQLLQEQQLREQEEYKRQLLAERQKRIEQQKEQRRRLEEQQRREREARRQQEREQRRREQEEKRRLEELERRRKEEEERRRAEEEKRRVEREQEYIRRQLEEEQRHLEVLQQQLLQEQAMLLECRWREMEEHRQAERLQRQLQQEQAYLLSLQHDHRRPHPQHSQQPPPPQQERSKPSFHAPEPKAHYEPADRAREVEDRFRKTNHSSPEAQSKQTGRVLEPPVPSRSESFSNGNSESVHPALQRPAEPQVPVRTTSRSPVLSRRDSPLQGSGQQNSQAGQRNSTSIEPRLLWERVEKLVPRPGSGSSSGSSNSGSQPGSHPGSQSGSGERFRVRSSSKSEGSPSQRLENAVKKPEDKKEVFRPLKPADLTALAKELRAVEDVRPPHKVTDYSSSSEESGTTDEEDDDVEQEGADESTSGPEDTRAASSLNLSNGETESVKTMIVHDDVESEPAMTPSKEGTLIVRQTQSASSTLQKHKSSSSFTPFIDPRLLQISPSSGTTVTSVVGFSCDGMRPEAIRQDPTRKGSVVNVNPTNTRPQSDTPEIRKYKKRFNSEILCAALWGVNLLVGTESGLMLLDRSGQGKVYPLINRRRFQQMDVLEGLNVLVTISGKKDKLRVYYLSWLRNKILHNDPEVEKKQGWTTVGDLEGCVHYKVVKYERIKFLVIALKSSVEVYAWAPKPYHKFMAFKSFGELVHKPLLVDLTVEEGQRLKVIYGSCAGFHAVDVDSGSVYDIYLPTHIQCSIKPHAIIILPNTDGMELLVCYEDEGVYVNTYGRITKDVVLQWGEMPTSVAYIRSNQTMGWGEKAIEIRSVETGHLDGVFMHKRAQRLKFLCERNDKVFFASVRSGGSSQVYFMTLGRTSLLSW
Aurora kinase A, sequence (O14965 whole entry): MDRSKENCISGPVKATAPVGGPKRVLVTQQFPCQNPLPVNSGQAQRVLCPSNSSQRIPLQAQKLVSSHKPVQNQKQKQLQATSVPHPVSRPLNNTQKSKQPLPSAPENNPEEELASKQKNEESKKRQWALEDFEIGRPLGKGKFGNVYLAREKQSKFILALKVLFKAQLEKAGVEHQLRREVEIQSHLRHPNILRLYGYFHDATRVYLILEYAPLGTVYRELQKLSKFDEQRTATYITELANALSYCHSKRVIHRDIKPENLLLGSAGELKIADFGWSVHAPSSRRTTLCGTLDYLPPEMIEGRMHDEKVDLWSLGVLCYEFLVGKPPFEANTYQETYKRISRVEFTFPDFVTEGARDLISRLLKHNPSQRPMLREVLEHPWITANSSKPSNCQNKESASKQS
Mitogen-activated protein kinase 8, sequence (P45983 whole entry): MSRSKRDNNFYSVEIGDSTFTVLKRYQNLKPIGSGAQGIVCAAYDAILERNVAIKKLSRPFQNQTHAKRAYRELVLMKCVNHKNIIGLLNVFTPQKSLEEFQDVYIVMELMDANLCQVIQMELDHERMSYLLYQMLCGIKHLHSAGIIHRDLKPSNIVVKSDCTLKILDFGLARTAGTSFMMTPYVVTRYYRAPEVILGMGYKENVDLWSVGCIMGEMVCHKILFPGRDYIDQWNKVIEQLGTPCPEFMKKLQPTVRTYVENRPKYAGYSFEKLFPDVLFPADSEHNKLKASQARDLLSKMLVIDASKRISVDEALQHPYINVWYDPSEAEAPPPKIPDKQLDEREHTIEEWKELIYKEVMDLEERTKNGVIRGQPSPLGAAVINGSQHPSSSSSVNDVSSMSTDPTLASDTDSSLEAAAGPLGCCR

Cc1ccc2c(c1)c1c3n2CCN(C(=O)CCl)C3CCC1 (configuration not stated)
active: EC50 [2] 1.19 µM | CC50 [3] 24.7 µM | AC50 [6] 2.05 µM
inactive: EC50 [1] > 32 µM | IC50 [4] > 64.6 µM | IC50 [5] > 64.6 µM

O=C(C1CCCN1S(=O)(=O)c1cccc2cccnc12)N1CCn2c1nc1ccccc12 (configuration not stated)
active: IC50 [8] 9.68 µM | IC50 [9] 3.36 µM | IC50 [12] 0.153 µM
inactive: IC50 [7] > 88.8 µM | IC50 [10] > 66.2 µM | IC50 [11] > 49.7 µM

Cc1n[nH]c2ccc(-c3cncc(OCCNS(C)(=O)=O)c3)cc12
active: Ki [13] 5.01 µM | Ki [14] 0.0631 µM | Ki [15] 6.31 µM | Ki [16] 0.0794 µM | Ki [17] 1 µM | Ki [18] 3.98 µM | Ki [19] 1 µM

CC(C)(C)c1cc(NC(=O)c2cc3ccccc3s2)n(-c2cccc(OCC(=O)O)c2)n1
active: Ki [20] 2 µM

O=S(=O)(Nc1ccc2c(c1)C(=NO)c1ccccc1-2)c1ccccc1F
active: Ki [21] 0.794 µM | Ki [22] 0.02 µM | Ki [23] 0.794 µM

CCN(CC)C(=O)c1cc(C2CC2)on1
inactive: EC50 [24] > 50 µM | EC50 [25] > 50 µM

CCOc1nc(NC(=O)C(C)C)cc(N)c1C#N
active: Ki [26] 1.26 µM | Ki [27] 7.94 µM

Reference: ChEMBL document CHEMBL1201862, “PubChem BioAssay data set” (2004)
